In patent US12006318B2, “Crystalline forms of C-C chemokine receptor type 4 antagonist and uses thereof” (RAPT THERAPEUTICS, INC., priority 2019, dated 2024):
Where two headings read alike, the source gives them in different places.

Key:
[1] = Hygroscopicity of the crystalline salt; assay type: physicochemical
[2] = Solubility (kinetic solubility) of salt forms at pH 2; assay type: physicochemical; settings: for solubility: in pH 2 water
[3] = Storage stability at room temperature; assay type: physicochemical; settings: after 36 months of storage at room temperature
[4] = Bioavailability of salt forms in rats; assay type: in vivo; settings: for bioavailability: in rats

SMILES	hygroscopicity [1]	solubility (in words) ([2]; embodiment statement)	solubility ([2]; water at pH 2, aqueous buffer) [µM]	stability on storage [3]	stability on storage ([3]; listed as benzenesulfonic acid salt)	bioavailability (in words) ([4]; embodiment statement)	bioavailability ([4]; rat, in vivo, read-out: bioavailability) [%]	kinetic solubility as fraction of that of the HCl salt ([2]; at pH 2, relative to HCl salt)	solubility [2] [µM]	solubility compared with the amorphous HCl salt ([2]; relative to amorphous HCl salt)	bioavailability [4] [%]
C[C@H](c1ccc(Cl)cc1Cl)n1nc(C(F)(F)F)c2ncc(N3CC([C@H]4CCCN(CCO)C4)C3)nc21 [crystalline form A, 2-((R)-3-(1-(1-((R)-1-(2,4-Dichlorophenyl)ethyl)-3-(trifluoromethyl)-1H-pyrazolo[3,4-b]pyrazin-6-yl)azetidin-3-yl)piperidin-1-yl)ethan-1-ol benzene sulfonate]	low hygroscopicity	good solubility	411	outstanding stability	superior stability	good bioavailability	34				
C[C@H](c1ccc(Cl)cc1Cl)n1nc(C(F)(F)F)c2ncc(N3CC([C@H]4CCCN(CCO)C4)C3)nc21.Cc1ccc(S(=O)(=O)O)cc1 [para-toluenesulfonic acid salt]								⅕	190	less soluble	22
